{"source": "patent US20240116863A1", "about": "“DIPHENYL THIOUREA AND DIPHENYL UREA DERIVATIVES AS INHIBITORS OF ENDOCYTOSIS” (priority 2022, published 2024)", "key": {"[1]": {"tested_on": "cholera toxin B (CTXB) endocytosis in A549 cells", "type": "cell-based", "details": "10 μM"}, "[2]": {"tested_on": "transferrin endocytosis in A549 cells", "type": "cell-based", "details": "10 μM"}, "[3]": {"tested_on": "organelle acidification in A549 cells", "type": "cell-based", "details": "10 μM, 1 h"}, "[4]": {"tested_on": "EGF endocytosis in A549 cells", "type": "cell-based", "details": "10 μM"}, "A549 cells": {"tested_on": "A549 cells", "type": "cell-based, Human", "description": "Human lung epithelial cells (A549) were seeded in a 96-well optical-bottom plate. When the cells reached 70-80% confluency, the cells were treated with the compounds (DPUDs and DPTUD) dissolved in DMSO) (50 ∥M) for 12 h at 37° C. Following treatment, the cells were washed with PBS and fixed with 4% formaldehyde for 20 min at room temperature. Nucleus was stained with Hoechst diluted in PBS (1:10000). High-content microscopy and image analysis were performed to quantitate cell number (FIG. 3). All data are represented as mean±SD. The P-value was determined using one-way ANOVA with multiple comparisons w.r.t. DMSO. ns: P>0.05, *P<0.05, **P<0.01, ***P<0.001, ****P<0.0001."}, "IAV (WSN) [5]": {"tested_on": "IAV (WSN)", "type": "cell-based, influenza A virus"}, "IAV (X-31)": {"tested_on": "IAV (X-31)", "type": "cell-based, influenza A virus", "details": "10 μM, A549 cells"}, "IAV (WSN) [6]": {"tested_on": "IAV (WSN)", "type": "in vivo, C57BL/6 mice"}, "[7]": {"tested_on": "SARS-CoV-2 Delta (B.1.617.2) and Omicron (B.1.1.529) strains", "assay": "Infection of Vero-E6 cells with additional SARS-CoV-2 strains", "type": "cell-based"}, "cellular endocytosis": {"tested_on": "cellular endocytosis", "details": "cited from earlier work"}}, "note": "Entries after “also recorded” stand apart in the source; their conditions may differ. Read-outs that look alike come from different tables or passages of the source."}
{"molecule": "FC(F)(F)c1cc(NC(=S)Nc2cc(C(F)(F)F)cc(C(F)(F)F)c2)cc(C(F)(F)F)c1", "note": "[DPTUD, 1,3-bis(3,5-bis(trifluoromethyl)phenyl)thiourea]", "values": [{"measurement": "cholera toxin B (CTXB) uptake", "setting": "[1]", "result": "significantly blocked"}, {"measurement": "transferrin uptake", "setting": "[2]", "result": "significantly blocked"}, {"measurement": "organelle acidification (LysoTracker-positive signal)", "setting": "[3]", "result": "robustly inhibited"}, {"measurement": "EGF uptake", "setting": "[4]", "result": "significantly blocked"}, {"measurement": "cytotoxicity", "setting": "A549 cells; 50 μM, 12 h, A549 cells", "result": "did not show cytotoxicity"}]}
{"molecule": "O=C(Nc1cc(C(F)(F)F)cc(C(F)(F)F)c1)Nc1cc(C(F)(F)F)cc(C(F)(F)F)c1", "note": "[DPUD-1, 1,3-bis(3,5-bis(trifluoromethyl)phenyl)urea]", "values": [{"measurement": "IAV (WSN) titre in virus plaque assay", "setting": "IAV (WSN) [5]", "result": "significant reduction"}, {"measurement": "virus particle internalization in live cells", "setting": "IAV (X-31)", "result": "majority of the virus particles failed to enter the cells"}, {"measurement": "body weight recovery of the infected mice", "setting": "IAV (WSN) [6]; […], 1 mg/kg i.p. twice daily 5 days", "result": "most effective"}, {"measurement": "lung viral titres (RT-PCR of NP gene and plaque assay)", "setting": "IAV (WSN) [6]; mouse, in vivo", "result": "significant reduction"}, {"measurement": "survival of infected mice", "setting": "IAV (WSN) [6]; mouse, in vivo", "result": "Better survival"}, {"measurement": "effect on infection with SARS-CoV-2 Delta and Omicron", "setting": "[7]", "result": "highly effective; also recorded: Reduced infection"}]}
{"molecule": "O=C(Nc1ccc(C(F)(F)F)cc1)Nc1ccc(C(F)(F)F)cc1", "note": "[DPUD-2, 1,3-bis(4-(trifluoromethyl)phenyl)urea]", "values": [{"measurement": "effect on infection with SARS-CoV-2 Delta and Omicron", "setting": "[7]", "result": "highly effective; also recorded: Reduced infection"}]}
{"molecule": "O=C(Nc1cc(F)cc(F)c1)Nc1cc(F)cc(F)c1", "note": "[DPUD-16, 1,3-bis(3,5-difluorophenyl)urea]", "values": [{"measurement": "effect on infection with SARS-CoV-2 Delta and Omicron", "setting": "[7]", "result": "Reduced infection"}]}
{"molecule": "O=C(Nc1ccc(OC(F)(F)F)cc1)Nc1ccc(OC(F)(F)F)cc1", "note": "[DPUD-20, 1,3-bis(4-(trifluoromethoxy)phenyl)urea]", "values": [{"measurement": "effect on infection with SARS-CoV-2 Delta and Omicron", "setting": "[7]", "result": "Reduced infection"}]}
{"molecule": "O=C(Nc1cc(Br)cc(Br)c1)Nc1cc(Br)cc(Br)c1", "note": "[DPUD-23, 1,3-bis(3,5-dibromophenyl)urea]", "values": [{"measurement": "effect on infection with SARS-CoV-2 Delta and Omicron", "setting": "[7]", "result": "highly effective; also recorded: Reduced infection"}]}
{"molecule": "CN(C)CCCN1c2ccccc2Sc2ccc(Cl)cc21", "note": "[chlorpromazine, reference compound]", "values": [{"measurement": "inhibitory concentration of known endocytosis inhibitor", "setting": "cellular endocytosis; 7× higher than the derivatives", "result": 70, "unit": "µM"}, {"measurement": "cytotoxicity", "setting": "A549 cells; human", "result": "> 75", "unit": "%"}]}
{"molecule": "methyl-β-cyclodextrin", "values": [{"measurement": "inhibitory concentration of known endocytosis inhibitor", "setting": "cellular endocytosis; 100× higher than the derivatives", "result": 1000, "unit": "µM"}]}
